# Reference: US20230099293A1, “OGA INHIBITOR COMPOUNDS” (priority 2019, published 2023)
# Assays:
# hOGA = biological target: T1, hOGA (Homo sapiens, UniProt O60502); assay: OGA cellular assay (ICC detection of O-GlcNAcylated proteins in HEK293 cells inducible for P301L mutant human Tau); type: cell-based; parameters: Emax: dose or concentration left out as unconfirmed; conditions: for EC50: Cellular hOGA, pEC50, Table 5; for Emax: HEK293, read-out: Cellular Emax (%)
# T1 construct: endogenous in cells; host or cells: HEK293 cells inducible for P301L mutant human Tau (isoform 2N4R)
# T1 sequence (O60502 1-916): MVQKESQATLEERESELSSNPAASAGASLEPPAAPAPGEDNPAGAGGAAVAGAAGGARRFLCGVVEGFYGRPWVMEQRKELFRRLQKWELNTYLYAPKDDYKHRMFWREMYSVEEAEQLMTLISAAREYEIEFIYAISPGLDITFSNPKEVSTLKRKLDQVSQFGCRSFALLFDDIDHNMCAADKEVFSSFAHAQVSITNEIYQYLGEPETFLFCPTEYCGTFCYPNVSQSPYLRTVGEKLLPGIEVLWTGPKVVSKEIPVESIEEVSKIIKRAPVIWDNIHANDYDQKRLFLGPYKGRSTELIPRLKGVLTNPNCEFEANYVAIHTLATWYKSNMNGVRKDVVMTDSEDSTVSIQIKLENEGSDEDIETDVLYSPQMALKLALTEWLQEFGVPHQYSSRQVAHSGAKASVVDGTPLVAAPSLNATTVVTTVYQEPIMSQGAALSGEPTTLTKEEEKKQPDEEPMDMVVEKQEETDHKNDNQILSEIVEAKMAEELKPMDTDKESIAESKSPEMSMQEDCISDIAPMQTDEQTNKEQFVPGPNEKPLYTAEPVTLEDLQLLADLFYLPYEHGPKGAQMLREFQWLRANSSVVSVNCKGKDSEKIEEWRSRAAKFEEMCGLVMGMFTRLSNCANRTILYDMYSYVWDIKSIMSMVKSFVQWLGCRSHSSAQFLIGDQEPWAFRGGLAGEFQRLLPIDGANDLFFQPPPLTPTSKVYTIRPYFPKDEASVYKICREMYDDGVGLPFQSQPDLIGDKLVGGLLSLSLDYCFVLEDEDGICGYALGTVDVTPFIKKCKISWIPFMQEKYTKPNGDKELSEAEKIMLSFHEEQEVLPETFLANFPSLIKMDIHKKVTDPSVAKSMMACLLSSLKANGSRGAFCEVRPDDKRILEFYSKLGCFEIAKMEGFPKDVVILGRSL
# Protocol: HEK293 cells inducible for P301L mutant human Tau (isoform 2N4R) were established at Janssen. Thiamet-G was used for both plate validation (high control) and as reference compound (reference EC50 assay validation). OGA inhibition is evaluated through the immunocytochemical (ICC) detection of O-GlcNAcylated proteins by the use of a monoclonal antibody (CTD110.6; Cell Signaling, #9875) detecting O-GlcNAcylated residues as previously described (Dorfmueller et al. 2010 Chemistry & biology, 17:1250). Inhibition of OGA will result in an increase of O-GlcNAcylated protein levels resulting in an increased signal in the experiment. Cell nuclei are stained with Hoechst to give a cell culture quality control and a rough estimate of immediate compounds toxicity, if any. ICC pictures are imaged with a Perkin Elmer Opera Phenix plate microscope and quantified with the provided software Perkin Elmer Harmony 4.1.
# Cells were propagated in DMEM high Glucose (Sigma, #D5796) following standard procedures. 2 days before the cell assay cells are split, counted and seeded in Poly-D-Lysine (PDL) coated 96-wells (Greiner, #655946) plate at a cell density of 12,000 cells per cm^2 (4,000 cells per well) in 100 μl of Assay Medium (Low Glucose medium is used to reduce basal levels of GlcNAcylation) (Park et al. 2014 The Journal of biological chemistry 289:13519). At the day of compound test medium from assay plates was removed and replenished with 90 μl of fresh Assay Medium. 10 μl of compounds at a 10 fold final concentration were added to the wells. Plates were centrifuged shortly before incubation in the cell incubator for 6 hours. DMSO concentration was set to 0.2%. Medium is discarded by applying vacuum. For staining of cells medium was removed and cells washed once with 100 μl D-PBS (Sigma, #D8537). From next step onwards unless other stated assay volume was always 50 μl and incubation was performed without agitation and at room temperature. Cells were fixed in 50 μl of a 4% paraformaldehyde (PFA, Alpha aesar, #043368) PBS solution for 15 minutes at room temperature. […] Before analysis samples were washed 2 times manually for 5 minutes in ICC base buffer.
# Imaging is performed using Perkin Elmer Phenix Opera using a water 20× objective and recording 9 fields per well. Intensity readout at 488 nm is used as a measure of O-GlcNAcylation level of total proteins in wells. To assess potential toxicity of compounds nuclei were counted using the Hoechst staining. IC50-values are calculated using parametric non-linear regression model fitting. As a maximum inhibition Thiamet Gat a 200 uM concentration is present on each plate. In addition, a concentration response of Thiamet G is calculated on each plate.
# [1] = biological target: T2, recombinant human Meningioma Expressed Antigen 5 (MGEA5), also referred to as O-GlcNAcase (OGA) (Homo sapiens, UniProt O60502); assay: OGA biochemical assay (inhibition of FM-GlcNAc hydrolysis, fluorescence); conditions: for IC50: Enzymatic hOGA, pIC50, Table 5; for IC50 / Enzymatic hOGA; pIC50: full length OGA 2 nM, FM-GlcNAc 100 uM, 6 h at room temperature; for Emax: read-out: Enzymatic Emax (%); for Enzymatic hOGA; pIC50: Table 5
# T2 construct: Full length OGA enzyme was purchased at OriGene (cat #TP322411); purchased OriGene TP322411
# T2 sequence (O60502 1-916): T1 sequence (O60502 1-916)
# Protocol: The hydrolysis FM-GlcNAc (Marker Gene technologies, cat #M1485) results in the formation of β-D-N-glucosamineacetate and fluorescein. The fluorescence of the latter can be measured at excitation wavelength 485 nm and emission wavelength 538 nm. An increase in enzyme activity results in an increase in fluorescence signal. Full length OGA enzyme was purchased at OriGene (cat #TP322411). The enzyme was stored in 25 mM Tris.HCl, pH 7.3, 100 mM glycine, 10% glycerol at −20° C. […] The assay was performed in 200 mM Citrate/phosphate buffer supplemented with 0.005% Tween-20. 35.6 g Na2HIPO42H2O (Sigma, #C0759) were dissolved in 1 L water to obtain a 200 mM solution. […] The buffer to stop the reaction consists of a 500 mM Carbonate buffer, pH 11.0. […] OGA was used at a 2 nM concentration and FM-GlcNAc at a 100 uM final concentration. Dilutions were prepared in assay buffer.
# Plates were pre-incubated for 60 min at room temperature and then 2 μl FM-GlcNAc substrate mix added. […] Plates were briefly centrifuged for 1 min at 1000 rpm and incubate at room temperature for 6 h. To stop the reaction 5 μl STOP buffer were added and plates centrifuge again 1 min at 1000 rpm. Fluorescence was quantified in the Thermo Scientific Fluoroskan Ascent or the PerkinElmer EnVision with excitation wavelength 485 nm and emission wavelength 538 nm.
# For analysis a best-fit curve is fitted by a minimum sum of squares method. From this an IC50 value and Hill coefficient was obtained. High control (no inhibitor) and low control (saturating concentrations of standard inhibitor) were used to define the minimum and maximum values.
# [2] = HEK293 P301L Tau cells, 6 hours incubation, O-GlcNAcylation readout
# [3] = Table 5, HEK293 P301L Tau cells, 6 hours incubation, O-GlcNAcylation readout
# [4] = second table, averaged values over several runs, obtained after recalibration of the equipment
SMILES,EC50 (hOGA; [2]) [nM],Emax (hOGA) [%],melting point [°C],IC50 [1] [nM],Emax [1] [%],Cellular hOGA; pEC50 (hOGA; [3]),Cellular hOGA; pEC50 (hOGA; [4]),Enzymatic hOGA; pIC50 [1]
CCCCn1cnc2c(Nc3c(C)cc(F)cc3C)nccc21 [Compound 57],513,62,184.45,53.7,99,,,
CCc1cc(C(F)(F)F)cc(C)c1Nc1nccc2c1ncn2CC(=O)N(C)C [Compound 10],100,100,211.6,9.33,100,,,
"Cc1cc(C(F)(F)F)cc(C)c1Nc1nccc2c1ncn2-c1ccc(F)cn1 [Compound 60, N-(2,6-Dimethyl-4-(trifluoromethyl)phenyl)-1-(5-fluoropyridin-2-yl)-1H-imidazo[4,5-c]pyridin-4-amine]",933,44,186.5,117,100,,,
CN(C)C(=O)Cn1cnc2c(Nc3c(Cl)cc(F)cc3C(F)(F)F)nccc21 [Compound 24],398,82,219.9,45.7,96,,,
Cc1cc(C(F)(F)F)nc(C)c1Nc1nccc2c1ncn2CC(=O)N(C)C [Compound 23],1020,51,233.3,45.7,99,,,
CN(C)C(=O)Cn1cnc2c(Nc3ccc(F)cc3C(F)(F)F)nccc21 [Compound 29],> 200,2,246.7,1000,100,,,
"Cc1cc(C(F)(F)F)cc(C)c1Nc1nccc2c1ncn2CC(=O)N(C)C [Compound 61, 2-(4-((2,6-Dimethyl-4-(trifluoromethyl)phenyl)amino)-1H-imidazo[4,5-c]pyridin-1-yl)-N,N-dimethylacetamide]",107,87,207.65,9.33,98,,,
"Cc1cc(C(F)(F)F)cc(C)c1Nc1ncc(C)c2c1ncn2CC(=O)N(C)C [Compound 6, 2-(4-((2,6-Dimethyl-4-(trifluoromethyl)phenyl)amino)-7-methyl-1H-imidazo[4,5-c]pyridin-1-yl)-N,N-dimethylacetamide]",288,60,238.3,19.1,99,,,
COc1cc(C)c(Nc2nccc3c2ncn3CC(=O)N(C)C)c(C)c1 [Compound 8],26.9,98,230,5.5,97,,,
[2H]C([2H])([2H])N(C(=O)Cn1cnc2c(Nc3c(C)cc(C(F)(F)F)cc3C)nccc21)C([2H])([2H])[2H] [Compound 53],135,87,208.2,7.24,103,,,
Cc1nccc(C(F)F)c1Nc1nccc2c1ncn2CC(=O)N(C)C [Compound 27],> 1000,18,216.6,372,89,,,
COc1cccc(-n2nc(C)c(Nc3nccc4c3ncn4CC(=O)N(C)C)c2C)c1 [Compound 36],603,55,179.7,29.5,101,,,
"Cc1cc(C(F)(F)F)cc(C)c1Nc1nccc2c1ncn2CC(N)=O [Compound 5, 2-[4-[2,6-Dimethyl-4-(trifluoromethyl)anilino]imidazo[4,5-c]pyridin-1-yl]acetamide]",447,67,266.8,120,91,,,
Cc1cc(F)cc(C)c1Nc1nccc2c1ncn2CC(=O)N(C)C [Compound 20],170,83,216.7,18.6,98,,,
Cc1cc2c(ncn2CC(=O)N(C)C)c(Nc2c(C)cc(C(F)(F)F)cc2C)n1 [Compound 30],> 1000,12,188.2,5890,55,,,
COCCn1cnc2c(Nc3c(C)cc(C(F)(F)F)cc3C)nccc21 [Compound 74],,6,161.5,,83,<6,<6,5.64
Cc1n[nH]c(C)c1Nc1nccc2c1ncn2CC(=O)N(C)C [Compound 38],> 1000,6,283.5,912,90,,,
Cc1cc(C(F)(F)F)cc(C)c1Nc1nccc2c1ncn2CCC(=O)N(C)C [Compound 70],,7,194.9,,7,<6,<6,<5
CN(C)C(=O)Cn1cnc2c(Nc3c(Cl)cc(C(F)(F)F)cc3Cl)nccc21 [Compound 17],316,77,238.4,16.2,99,,,
